Test results reported in patent US3976779A, “1,2,3,4-Tetrahydro-carbazole compounds and β-adrenergic compositions” (Boehringer Mannheim G.m.b.H., priority 1974, dated 1976).

What was measured:
in vivo = conditions: iv, mouse, i.v., dosage at which 50% of the mice die, read-out: Acute Toxicity LD50 Mouse
Protocol: (§1) The following tests were carried out to determine the toxicity and the cardiac β-receptor blocking activity of certain test compounds by determining the inhibition of the heart beat frequency increase induced by intravenous administration of isoprenalin.

cardiac β-receptor = assay: Blocking of isoprenalin tachycardia in wake rabbits (β-receptor blocking activity); conditions: for Therapeutic Index (LD50:DE250): LD50 mouse i.v. : DE250 wake rabbit i.v.; for DE250: wake rabbits, interpolated dosage which limits frequency increase to 250 beats/min, 15 min i.v. infusion, isoprenalin i.v. 30 min after infusion
Protocol: as §1
The β-receptor blocking activity of the test compounds was tested on wake rabbits weighing between 2 to 3.5 kg. and kept in wooden cages. EKG-electrodes were inserted into the hind quarters of the rabbits s.c. (II. lead) and the heart frequency was measured based on 20 heart beats. The test compounds were then infused through a small tube to the ear vein of the rabbits over a period of 15 minutes. 30 minutes after the infusion isoprenalin (3,4-dihydro-a-[(isopropylamino)-methyl]-benzylalcohol) was injected intravenously at 1 /ug/kg.

Row | SMILES | LD50 (in vivo) [mg/kg] | Therapeutic Index (LD50:DE250) (cardiac β-receptor) | DE250 (cardiac β-receptor) [mg/kg i.v.]
1 | CC(C)(C)NCC(O)COc1cccc2[nH]c3c(c12)CCCC3 (stereo not shown) [Compound II, 1,2,3,4-Tetrahydro-5-(2-hydroxy-3-tert. butylaminopropoxy)-carbazole] | 7 | 875 | 0.008
2 | CC(C)NCC(O)COc1cccc2[nH]c3c(c12)CCCC3 (stereo not shown) [Compound I, 1,2,3,4-Tetrahydro-5-(2-hydroxy-3-isopropylamino-propoxy)-carbazole] | ~8 | ~ 200 | 0.040
3 | CC(C)NCC(O)COc1cccc2ccccc12 (stereo not shown) [Compound A, 1-Isopropylamino-3-(1-napthoxy)-2-propanol, reference compound] | – | – | 0.400
